{"source": "patent US7632782B2", "about": "“Synergistically acting herbicidal mixtures” (BASF Aktiengesellschaft, priority 2002, dated 2009)", "type_in_all_cases": "in vivo", "key": {"[1]": {"test_system": "Avena fatua", "assay": "Herbicidal action, post-emergence treatment, greenhouse", "from_the_text": "(§1) The mixtures according to the invention were applied pre- and/or post-emergence (foliar treatment). The herbicidal compounds of component B) and, if desired, of component C) as well as the safener D) were applied in the formulation in which they are present as commercially available product (s).\n(§2) The herbicidally active compounds of components A), B) and, if desired, C), and, if desired D), were applied in succession or jointly, in the latter case in some cases as a tank mix and in some cases as a readymix, in the form of emulsions, aqueous solutions or suspensions, the vehicle being water (300-400 l/ha). In the case of the field trials, application was effected with the aid of a mobile plot sprayer.\n(§3) The test period extended over 3 to 8 weeks, and the stands were also observed at later points in time.\n(§4) Damage by the herbicidal compositions was evaluated with reference to a scale of 0% to 100% in comparison with untreated control plots. 0 means no damage and 100 means complete destruction of the plants.\n(§5) In these examples, the value […] at which only an additive effect of the individual active ingredients is to be expected was calculated by the method of S. R. Colby (Calculating synergistic and antagonistic responses of herbicide combinations, Weeds 15, 20 pp (1967)).\n(§6) [formula] where • X=Percentage of the herbicidal action of component A) at an application rate of a; • Y=Percentage of the herbicidal action of component B), and, if desired, C), and, if desired, D) at an application rate of b, and, if desired, c, and, if desired, d; • E=expected herbicidal action of component A)+B), and, if desired C), and; if desired, D) at rates of application a+b, and, if desired, c and, if desired, d (in %).\n(§7) If the value observed exceeds the value E calculated in accordance with Colby's formula, then synergism is present."}, "[2]": {"test_system": "Pharbitis purpurea", "assay": "Herbicidal action, post-emergence treatment, greenhouse", "from_the_text": "as §1, §2, §3, §4, §5, §6, §7"}, "[3]": {"test_system": "Abutilon theophrasti", "assay": "Herbicidal action, post-emergence treatment, greenhouse", "from_the_text": "as §1, §2, §3, §4, §5, §6, §7"}, "[4]": {"test_system": "Bidens pilosa", "assay": "Herbicidal action, post-emergence treatment, greenhouse", "details": "Table 12, application rate 7.81 g/ha ai", "from_the_text": "as §1, §2, §3, §4, §5, §6, §7"}, "[5]": {"test_system": "Galium aparine", "assay": "Herbicidal action, post-emergence treatment, greenhouse", "details": "Table 11, application rate 7.81 g/ha ai", "from_the_text": "as §1, §2, §3, §4, §5, §6, §7"}, "[6]": {"test_system": "Amaranthus retroflexus", "assay": "Herbicidal action, post-emergence treatment, greenhouse", "from_the_text": "as §1, §2, §3, §4, §5, §6, §7"}, "[7]": {"test_system": "Bidens pilosa", "assay": "Herbicidal action, post-emergence treatment, field", "from_the_text": "as §1, §2, §3, §4, §5, §6, §7"}, "[8]": {"test_system": "Brachiaria plantaginea", "assay": "Herbicidal action, post-emergence treatment, field", "details": "Table 15, application rate 3.91 g/ha ai", "from_the_text": "as §1, §2, §3, §4, §5, §6, §7"}, "[9]": {"test_system": "Polygonum persicaria", "assay": "Herbicidal action, post-emergence treatment, field", "details": "Table 10, application rate 1.95 g/ha ai", "from_the_text": "as §1, §2, §3, §4, §5, §6, §7"}, "[10]": {"test_system": "Commelina benghalensis", "assay": "Herbicidal action, post-emergence treatment, field", "details": "Table 5, application rate 7.81 g/ha ai", "from_the_text": "as §1, §2, §3, §4, §5, §6, §7"}, "[11]": {"test_system": "Pharbitis purpurea", "assay": "Herbicidal action, post-emergence treatment, field", "details": "Table 9, application rate 3.91 g/ha ai", "from_the_text": "as §1, §2, §3, §4, §5, §6, §7"}, "[12]": {"details": "Table 3, application rate 1.95 g/ha ai"}, "[13]": {"details": "Table 4, application rate 0.98 g/ha ai"}, "[14]": {"details": "Table 3, application rate 3.91 g/ha ai"}, "[15]": {"details": "Table 4, application rate 1.95 g/ha ai"}, "[16]": {"details": "Table 6, application rate 3.91 g/ha ai"}, "[17]": {"details": "Table 8, application rate 1.95 g/ha ai"}, "[18]": {"details": "Table 14, application rate 3.91 g/ha ai"}}}
{"molecule": "COc1cc(OC)nc(NC(=O)NS(=O)(=O)c2cc(NC=O)ccc2C(=O)N(C)C)n1", "note": "[Compound II, foramsulfuron, reference compound]", "values": [{"measurement": "Avena fatua Damage [%]", "setting": "[1]; [12]", "value": 50, "unit": "%"}, {"measurement": "Avena fatua Damage [%]", "setting": "[1]; [13]", "value": 30, "unit": "%"}, {"measurement": "Pharbitis purpurea Damage [%]", "setting": "[2]; [12]", "value": 80, "unit": "%"}, {"measurement": "Abutilon theophrasti Damage [%]", "setting": "[3]; [13]", "value": 30, "unit": "%"}]}
{"molecule": "Cc1c(C(=O)c2cnn(C)c2O)ccc(S(C)(=O)=O)c1C1=NOCC1", "note": "[Ia.29, 4-[2-methyl-3-(4,5-dihydroisoxazol-3-yl)-4-methylsulfonyl-benzoyl]-1-methyl-5-hydroxy-1H-pyrazole]", "values": [{"measurement": "Bidens pilosa Damage [%]", "setting": "[4]", "value": 60, "unit": "%"}, {"measurement": "Avena fatua Damage [%]", "setting": "[1]; [14]", "value": 50, "unit": "%"}, {"measurement": "Avena fatua Damage [%]", "setting": "[1]; [15]", "value": 25, "unit": "%"}, {"measurement": "Galium aparine Damage [%]", "setting": "[5]", "value": 30, "unit": "%"}, {"measurement": "Pharbitis purpurea Damage [%]", "setting": "[2]; [14]", "value": 70, "unit": "%"}, {"measurement": "Abutilon theophrasti Damage [%]", "setting": "[3]; [15]", "value": 40, "unit": "%"}, {"measurement": "Abutilon theophrasti Damage [%]", "setting": "[3]; [16]", "value": 80, "unit": "%"}, {"measurement": "Abutilon theophrasti Damage [%]", "setting": "[3]; [17]", "value": 40, "unit": "%"}, {"measurement": "Abutilon theophrasti Damage [%]", "setting": "[3]; Table 11, application rate 7.81 g/ha ai", "value": 95, "unit": "%"}, {"measurement": "Abutilon theophrasti Damage [%]", "setting": "[3]; Table 12, application rate 7.81 g/ha ai", "value": 95, "unit": "%"}, {"measurement": "Abutilon theophrasti Damage [%]", "setting": "[3]; [18]", "value": 80, "unit": "%"}, {"measurement": "Amaranthus retroflexus Damage [%]", "setting": "[6]; [16]", "value": 60, "unit": "%"}, {"measurement": "Amaranthus retroflexus Damage [%]", "setting": "[6]; [17]", "value": 40, "unit": "%"}, {"measurement": "Amaranthus retroflexus Damage [%]", "setting": "[6]; [18]", "value": 60, "unit": "%"}, {"measurement": "Bidens pilosa Damage [%]", "setting": "[7]; Table 7, application rate 3.91 g/ha ai", "value": 30, "unit": "%"}, {"measurement": "Bidens pilosa Damage [%]", "setting": "[7]; Table 13, application rate 7.81 g/ha ai", "value": 60, "unit": "%"}, {"measurement": "Brachiaria plantaginea Damage [%]", "setting": "[8]", "value": 80, "unit": "%"}, {"measurement": "Polygonum persicaria Damage [%]", "setting": "[9]", "value": 95, "unit": "%"}, {"measurement": "Commelina benghalensis Damage [%]", "setting": "[10]", "value": 40, "unit": "%"}, {"measurement": "Pharbitis purpurea Damage [%]", "setting": "[11]", "value": 70, "unit": "%"}]}
